Data published in US9212171B2, “Ethynyl compounds” (Hoffmann-La Roche Inc., priority 2011, dated 2015).

Target: human mGlu5a receptor (Homo sapiens (Human), UniProt P41594)
Experiment: Intracellular Ca2+ mobilization assay (mGlu5 PAM)
Type: cell-based
Details: for EC50: HEK-293 cells stably transfected with human mGlu5a, L-glutamate added at EC20 (typically around 80 μM); for Emax / Eff. (%): maximal response in % of the maximal stimulatory effect obtained with saturating concentrations of L-glutamate; for Emax: read-out: Eff. (%)
Experimental: A monoclonal HEK-293 cell line stably transfected with a cDNA encoding for the human mGlu5a receptor was generated; for the work with mGlu5 Positive Allosteric Modulators (PAMs), a cell line with low receptor expression levels and low constitutive receptor activity was selected to allow the differentiation of agonistic versus PAM activity. Cells were cultured according to standard protocols (Freshney, 2000) in Dulbecco's Modified Eagle Medium with high glucose supplemented with 1 mM glutamine, 10% (vol/vol) heat-inactivated bovine calf serum, Penicillin/Streptomycin, […] hygromycin and 15 μg/ml blasticidin (all cell culture reagents and antibiotics from Invitrogen, Basel, Switzerland).
About 24 hrs before an experiment, 5×10^4 cells/well were seeded in poly-D-lysine coated, black/clear-bottomed 96-well plates. The cells were loaded with 2.5 μM Fluo-4AM in loading buffer (1×HBSS, 20 mM HEPES) for 1 hr at 37° C. and washed five times with loading buffer. The cells were transferred into a Functional Drug Screening System 7000 (Hamamatsu, Paris, France), and 11 half logarithmic serial dilutions of test compound at 37° C. were added and the cells were incubated for 10-30 min. with on-line recording of fluorescence. Following this pre-incubation step, the agonist L-glutamate was added to the cells at a concentration corresponding to EC20 (typically around 80 μM) with on-line recording of fluorescence; in order to account for day-to-day variations in the responsiveness of cells, the EC20 of glutamate was determined immediately ahead of each experiment by recording of a full dose-response curve of glutamate.
Responses were measured as peak increase in fluorescence minus basal (i.e. fluorescence without addition of L-glutamate), normalized to the maximal stimulatory effect obtained with saturating concentrations of L-glutamate. Graphs were plotted with the % maximal stimulatory using XLfit, a curve fitting program that iteratively plots the data using Levenburg Marquardt algorithm. The single site competition analysis equation used was y=A+((B−A)/(1+((x/C)D))), where y is the % maximal stimulatory effect, A is the minimum y, B is the maximum y, C is the EC50, x is the log 10 of the concentration of the competing compound and D is the slope of the curve (the Hill Coefficient). From these curves the EC50 (concentration at which half maximal stimulation was achieved), the Hill coefficient as well as the maximal response in % of the maximal stimulatory effect obtained with saturating concentrations of L-glutamate were calculated.
A depression of the signal observed after addition of the EC20 concentration of L-glutamate was indicative of an inhibitory activity of the test compound.

Chain of human mGlu5a receptor (P41594 other isoform, or with tags, fused parts or gaps): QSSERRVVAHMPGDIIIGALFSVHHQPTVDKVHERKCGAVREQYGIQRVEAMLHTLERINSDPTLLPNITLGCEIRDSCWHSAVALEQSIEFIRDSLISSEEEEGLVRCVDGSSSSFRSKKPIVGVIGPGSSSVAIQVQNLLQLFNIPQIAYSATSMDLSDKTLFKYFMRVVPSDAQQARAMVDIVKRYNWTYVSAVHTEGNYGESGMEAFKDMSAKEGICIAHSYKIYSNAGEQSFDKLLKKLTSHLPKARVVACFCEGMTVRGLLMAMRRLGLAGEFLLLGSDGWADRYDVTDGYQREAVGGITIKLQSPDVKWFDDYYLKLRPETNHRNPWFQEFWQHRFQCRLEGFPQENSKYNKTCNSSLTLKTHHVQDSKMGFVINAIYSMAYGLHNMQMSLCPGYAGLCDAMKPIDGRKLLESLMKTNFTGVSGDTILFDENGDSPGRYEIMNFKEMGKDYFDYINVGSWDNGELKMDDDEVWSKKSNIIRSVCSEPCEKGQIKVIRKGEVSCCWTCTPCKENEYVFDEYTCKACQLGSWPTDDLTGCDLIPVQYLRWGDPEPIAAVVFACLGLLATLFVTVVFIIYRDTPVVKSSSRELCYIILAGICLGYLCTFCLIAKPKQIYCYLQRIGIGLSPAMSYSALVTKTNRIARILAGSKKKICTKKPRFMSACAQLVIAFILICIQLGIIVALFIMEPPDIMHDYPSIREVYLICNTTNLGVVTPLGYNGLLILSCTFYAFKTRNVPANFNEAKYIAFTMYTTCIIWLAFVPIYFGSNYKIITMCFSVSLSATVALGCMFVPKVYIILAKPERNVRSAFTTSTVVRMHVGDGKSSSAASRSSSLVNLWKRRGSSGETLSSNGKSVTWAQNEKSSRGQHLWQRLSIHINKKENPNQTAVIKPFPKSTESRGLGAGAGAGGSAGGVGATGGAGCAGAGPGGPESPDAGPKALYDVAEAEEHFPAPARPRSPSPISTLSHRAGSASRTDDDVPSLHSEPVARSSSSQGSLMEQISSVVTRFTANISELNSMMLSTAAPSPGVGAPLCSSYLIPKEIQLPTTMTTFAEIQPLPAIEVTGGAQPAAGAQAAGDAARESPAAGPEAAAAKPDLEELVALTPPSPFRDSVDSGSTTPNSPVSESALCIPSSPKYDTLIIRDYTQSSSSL

Row | Structure (SMILES) | EC50 | Emax | Eff. (%)
1 | CN1C(=O)[C@@H](c2ccc(C#Cc3cccc(F)c3)cn2)[C@@H]2CCCC[C@@H]21 (racemic) [Example 38, (3RS,6SR,7SR)-3-[5-(3-Fluoro-phenylethynyl)-pyridin-2-yl]-1-methyl-octahydro-indol-2-one] | 69 nM | 60% | –
2 | CN1C(=O)[C@H](c2ccc(C#Cc3cccc(F)c3)cn2)[C@@H]2CCCC[C@@H]21 (racemic) [Example 39, (3SR,6SR,7SR)-3-[5-(3-Fluoro-phenylethynyl)-pyridin-2-yl]-1-methyl-octahydro-indol-2-one] | 141 nM | 61% | –
3 | CN1C(=O)C(c2ccc(C#Cc3ccnc(Cl)c3)cn2)CC1(C)C (racemic) [Example 44, (RS)-3-[5-(2-Chloro-pyridin-4-ylethynyl)-pyridin-2-yl]-1,5,5-trimethyl-pyrrolidin-2-one] | 88 nM | 32% | –
4 | CN1CCCC[C@@H](c2ccc(C#Cc3ccccc3)cn2)C1=O (single isomer, unassigned) [Example 25, (S or R)-1-Methyl-3-(5-phenylethynyl-pyridin-2-yl)-azepan-2-one] | 35 nM | 70% | –
5 | CN1CCCC[C@H](c2ccc(C#Cc3ccccc3)cn2)C1=O (single isomer, unassigned) [Example 26, (R or S)-1-Methyl-3-(5-phenylethynyl-pyridin-2-yl)-azepan-2-one] | 265 nM | 69% | –
6 | CN1C(=O)[C@@H](c2ccc(C#Cc3ccccc3)cn2)[C@@H]2CCC[C@@H]21 (single isomer, unassigned) [Example 28, (3R,3aS,6aS) or (3S,3aR,6aR)-1-Methyl-3-(5-phenylethynyl-pyridin-2-yl)-hexahydro-cyclopenta[b]pyrrol-2-one] | 24 nM | – | 58%
7 | CN1C(=O)[C@@H](c2ccc(C#Cc3cccc(F)c3)cn2)[C@@H]2CCC[C@@H]21 (single isomer, unassigned) [Example 31, (3R,3aS,6aS) or (3S,3aR,6aR)-3-[5-(3-Fluoro-phenylethynyl)-pyridin-2-yl]-1-methyl-hexahydro-cyclopenta[b]pyrrol-2-one] | 25 nM | – | 51%
8 | CN1C(=O)[C@H](c2ccc(C#Cc3cccc(F)c3)cn2)[C@H]2CCC[C@H]21 (single isomer, unassigned) [Example 32, (3S,3aR,6aR) or (3R,3aS,6aS)-3-[5-(3-Fluoro-phenylethynyl)-pyridin-2-yl]-1-methyl-hexahydro-cyclopenta[b]pyrrol-2-one] | 48 nM | 68% | –
9 | CN1C(=O)[C@@H](c2ccc(C#Cc3ccnc(Cl)c3)cn2)CC1(C)C (single isomer, unassigned) [Example 45, (S) or (R)-3-[5-(2-Chloro-pyridin-4-ylethynyl)-pyridin-2-yl]-1,5,5-trimethyl-pyrrolidin-2-one] | 65 nM | 36% | –
10 | CN1C(=O)[C@H](c2ccc(C#Cc3ccnc(Cl)c3)cn2)CC1(C)C (single isomer, unassigned) [Example 46, (R) or (S)-3-[5-(2-Chloro-pyridin-4-ylethynyl)-pyridin-2-yl]-1,5,5-trimethyl-pyrrolidin-2-one] | 103 nM | 40% | –
11 | CN1C(=O)C(c2ccc(C#Cc3ccc(F)cc3)nn2)CC1(C)C (stereo not shown) [Example 10, 3-(6-((4-fluorophenyl)ethynyl)pyridazin-3-yl)-1,5,5-trimethylpyrrolidin-2-one] | 247 nM | 99% | –
12 | CN1C(=O)[C@@H](c2ccc(C#Cc3ccccc3)cn2)[C@@H]2CCCC[C@@H]21 [Example 36, (3R,6S,7S)-1-Methyl-3-(5-phenylethynyl-pyridin-2-yl)-octahydro-indol-2-one] | 84 nM | 92% | –
13 | CN1C(=O)[C@H](c2ccc(C#Cc3ccccc3)cn2)[C@H]2CCCC[C@H]21 [Example 37, (3S,6R,7R)-1-Methyl-3-(5-phenylethynyl-pyridin-2-yl)-octahydro-indol-2-one] | 84 nM | 49% | –
14 | CN1C(=O)[C@@H](c2ccc(C#Cc3cccc(F)c3)cn2)[C@@H]2CCCC[C@@H]21 [Example 40, (3R,6S,7S)-3-[5-(3-Fluoro-phenylethynyl)-pyridin-2-yl]-1-methyl-octahydro-indol-2-one] | 89 nM | 68% | –
15 | CN1C(=O)[C@H](c2ccc(C#Cc3cccc(F)c3)cn2)[C@H]2CCCC[C@H]21 [Example 41, (3S,6R,7R)-3-[5-(3-fluoro-phenylethynyl)-pyridin-2-yl]-1-methyl-octahydro-indol-2-one] | 68 nM | 56% | –
16 | CN1C(=O)[C@@H](c2ccc(C#Cc3ccc(F)cc3)cn2)[C@@H]2CCCC[C@@H]21 [Example 42, (3R,6S,7S)-3-[5-(4-Fluoro-phenylethynyl)-pyridin-2-yl]-1-methyl-octahydro-indol-2-one] | 57 nM | 63% | –
17 | CN1C(=O)[C@H](c2ccc(C#Cc3ccc(F)cc3)cn2)[C@H]2CCCC[C@H]21 [Example 43, (3S,6R,7R)-3-[5-(4-fluoro-phenylethynyl)-pyridin-2-yl]-1-methyl-octahydro-indol-2-one] | 146 nM | 53% | –
